# Measurements published in patent publication US8551937B2, “Peptide having an extending action for half-life of object peptide in plasma” (priority 2008, dated 2013).
# Assays:
# [1] = target: T1, neutral endopeptidase (NEP) (Homo sapiens, UniProt P08473); experiment: Resistance to peptidase: stability to hNEP (HPLC residual rate); assay type: in vitro ADME; details: human, isolated enzyme neprilysin; hNEP, 37° C., 1 hour, 0.5 μg/mL, 20 mM MES pH 6.5, mean of N = 2; read-out: Residual Rate
# T1 construct: purchased R&D Systems, Inc., U.S.A
# Procedure: (§1) The experiment was conducted in N=2 for each sample. Native CNP-22, chimeric CNP (A, B) (structure mentioned already; final concentration: 0.5 μg/mL) and 100 μL of reaction solution (medium: 20 mM MES, pH 6.5) of human type recombinant neutral endopeptidase (hNEP, manufactured by R&D Systems, Inc., U.S.A.) were prepared. […] Distilled water (100 μL) was added to the sample after boiling followed by well mixing and 50 μL thereof was analyzed in a water-acetonitrile system using a high-performance liquid chromatography system LC-10A (manufactured by Shimadzu). The analytical data were analyzed by a Chromato-Pack (CRA-10A, manufactured by Shimadzu) and area of the peak zone of unchanged substance was calculated. The area of average zone of unchanged substance when made to react at 37° C. was divided by the area of average zone of the boiled sample to calculate the residual rate of the unchanged substance after 1 hour.
# [2] = target: T2, human type recombinant neutral endopeptidase (hNEP) (Homo sapiens, UniProt P08473); experiment: as above; assay type: in vitro ADME; details: hNEP, 37° C., 1 hour, 0.5 μg/mL, 20 mM MES pH 6.5, mean of N = 2
# T2 construct: purchased R&D Systems, Inc., U.S.A
# Procedure: as §1
# [3] = Comparison of half-life in plasma of native CNP-22, native CNP-53 and chimeric CNP (Example 12); details: male, SD, rat, in vivo, iv, 20 nmol/kg, T½ Mean Value, intravenous, male rats, N = 3
# Procedure: Changes in CNP immunoreactivity concentration in plasma when the native CNP-22 shown by SEQ ID No: 101 was administered either solely or jointly with neutral endo-peptidase (NEP) inhibitor and compared with changes in CNP immunoreactivity concentration in plasma when native CNP-53 (SEQ ID No: 159) and the chimeric CNP (D) (structure mentioned already) were intravenously administered.
# The experiment was conducted using rats where polyethylene tube (PE-50, manufactured by Clay Adams) was previously inserted into thigh artery under the anesthetized condition with Nembutal. In the group where the native CNP-22 was administered either solely or jointly with an NEP inhibitor, the polyethylene tube (PE-10, manufactured by Clay Adams) was also inserted into the thigh vein. As to a test system, male SD rats (Nippon Charles River) of 7 weeks age were used where one group comprised three rats. As to the NEP inhibitor, DL-Thiorphan (manufactured by Sigma) was used and, during the period from 10 minutes before the initiation of administration of the native CNP-22 until 60 minutes after the initiation of the administration where collection of the blood finished, 5% mannitol (100 μL/min/body) or NEP inhibitor (30 μg/100 μL/min/body) was subjected to a constant-speed intravenous administration for 70 minutes using an Infusion Pump (CFV 2100, manufactured by Nippon Koden K. K.). Native CNP-22, native CNP-53 or chimeric CNP (D) was administered into tail vein in a dose of 20 nmol/kg each and blood over the time from before administration and 60 minutes after administration was collected from a polyethylene tube inserted into the thigh artery. To the collected blood were added EDTA (Dojin Laboratories) and aprotinin (manufactured by Bayer) as a stabilizer and an anti-coagulant, respectively and the plasma was separated by means of centrifugal separation. CNP immunoreactivity concentration in the plasma was measured by a competitive radioimmunoassay (RIA). At that time, a rabbit polyclonal antibody (#2) which specifically recognizes a ring part structure which is the common structure for native CNP-22 and native CNP-53 was used as an antibody while, as a labeling compound, ^125I-[Tyr^0] CNP-22 was used.
# [4] = Antigenicity by indirect ELISA of serum after repeated administration; assay type: in vivo; details: 0.25 mg/kg subcutaneous twice daily for 29 days, mouse serum
# Procedure: In order to investigate whether an antibody to native CNP-22 or chimeric CNP (B) was produced using serum collected from the mice after completion of repeated administration for four weeks in Example 4, antigenicity of each of them was evaluated by means of an indirect ELISA. A peptide solution (100 μL) adjusted to 1.0 ng/μL using 50 mM of […] at pH 8.5 was added to a 96-well plate (manufactured by Nalge Nunc International; Denmark) treated with Maxisoap and subjected to a coating operation overnight at 4° C. A blocking was carried out at room temperature for 1 hour using a 2.0% Block Ace (manufactured by Snow Brand Milk). […] After washing the wells, an anti-mouse IgG HRPAb (manufactured by Zymed Laboratories, U.S.A.) was added thereto. The antigen-antibody reaction was conducted for 1 hour at room temperature, then the wells were washed and a substrate ABTS (manufactured by KPL, U.S.A.) was added thereto.
# [5] = CNP immunoreactivity concentration in plasma, half-life after intravenous administration (Example 9); details: male, SD, rat, in vivo, 20 nmol/kg
# T1 sequence (P08473 whole entry): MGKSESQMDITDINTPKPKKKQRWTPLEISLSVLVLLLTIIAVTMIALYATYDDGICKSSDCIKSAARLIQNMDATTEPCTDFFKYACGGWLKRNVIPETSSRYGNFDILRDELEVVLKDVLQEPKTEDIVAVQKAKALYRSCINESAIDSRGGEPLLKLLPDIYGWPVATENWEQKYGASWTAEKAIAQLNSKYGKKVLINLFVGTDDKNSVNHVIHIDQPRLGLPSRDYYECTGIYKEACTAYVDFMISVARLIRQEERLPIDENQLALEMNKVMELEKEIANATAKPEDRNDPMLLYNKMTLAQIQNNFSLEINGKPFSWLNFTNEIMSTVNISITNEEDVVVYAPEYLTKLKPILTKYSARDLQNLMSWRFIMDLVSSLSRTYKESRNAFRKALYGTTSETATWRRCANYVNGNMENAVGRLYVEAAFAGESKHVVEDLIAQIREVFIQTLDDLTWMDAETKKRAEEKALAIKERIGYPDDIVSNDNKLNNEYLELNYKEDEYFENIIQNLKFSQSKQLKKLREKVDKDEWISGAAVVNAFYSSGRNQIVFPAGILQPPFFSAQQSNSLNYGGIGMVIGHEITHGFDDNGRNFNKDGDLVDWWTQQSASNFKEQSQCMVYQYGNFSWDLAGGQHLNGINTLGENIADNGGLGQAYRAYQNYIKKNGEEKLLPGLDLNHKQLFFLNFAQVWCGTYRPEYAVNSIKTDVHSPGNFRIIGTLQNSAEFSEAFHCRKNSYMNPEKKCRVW
# T2 sequence (P08473 whole entry): as above
compound,measurement,setting,value
CC[C@H](C)[C@@H]1NC(=O)[C@H](CCCNC(=N)N)NC(=O)[C@H](CC(=O)O)NC(=O)[C@H](CC(C)C)NC(=O)[C@H](CCCCN)NC(=O)[C@H](CC(C)C)NC(=O)CNC(=O)[C@H](Cc2ccccc2)NC(=O)[C@@H](NC(=O)CNC(=O)[C@H](CCCCN)NC(=O)[C@H](CO)NC(=O)[C@H](CC(C)C)NC(=O)CN)CSSC[C@@H](C(=O)O)NC(=O)CNC(=O)[C@H](CC(C)C)NC(=O)CNC(=O)[C@H](CO)NC(=O)[C@H](CCSC)NC(=O)[C@H](CO)NC(=O)CNC1=O [Native CNP-22],"remaining at 1 h, 0.5 μg/mL",[1],16.7%
same,Residual Rate,[2],16.7%
same,half-life,[3]; Joint Use with NEP Inhibitor: no,1.11 min
same,half-life,[3]; Joint Use with NEP Inhibitor: yes (DL-Thiorphan),16.2 min
same,antibody value,[4],no rise
same,half-life,[5],1.6 min
